# In ChEMBL document CHEMBL1201862, “PubChem BioAssay data set” (2004):
#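 How tested: cells in 96-well plates exposed to compound for 48 hours at five concentrations. Abbreviation: GI50, concentration required for 50% inhibition of growth.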 Calls of active or inactive are those of the source. No stated cut-off is given here; in the data, active = GI50 up to about 1.1 µM and inactive = higher.
# Assays:
# Experiment in all cases: growth of human tumour cells (NCI), 48 h
# SNB-19 = tested on: SNB-19
# SK-MEL-5 = tested on: SK-MEL-5
# UACC-62 = tested on: UACC-62
# MOLT-4 = tested on: MOLT-4
# OVCAR-3 = tested on: OVCAR-3
# UO-31 = tested on: UO-31
# EKVX = tested on: EKVX
# SF-539 = tested on: SF-539
# UACC-257 = tested on: UACC-257
# A549 = tested on: A549
# A498 = tested on: A498
# HL-60 = tested on: HL-60
# MDA-MB-435 = tested on: MDA-MB-435
# IGROV-1 = tested on: IGROV-1
# CAKI-1 = tested on: CAKI-1
# U-251 = tested on: U-251
# RPMI-8226 = tested on: RPMI-8226
# OVCAR-4 = tested on: OVCAR-4
# BT-549 = tested on: BT-549
# M19-MEL = tested on: M19-MEL
Compound,GI50 (SNB-19),GI50 (SK-MEL-5),GI50 (UACC-62),GI50 (MOLT-4),GI50 (OVCAR-3),GI50 (UO-31),GI50 (EKVX),GI50 (SF-539),GI50 (UACC-257),GI50 (A549),GI50 (A498),GI50 (HL-60),GI50 (MDA-MB-435),GI50 (IGROV-1),GI50 (CAKI-1),GI50 (U-251),GI50 (RPMI-8226),GI50 (OVCAR-4),GI50 (BT-549),GI50 (M19-MEL)
CN(C)c1ccc(/C=C(\NC(=O)c2ccccc2)C(=O)Nc2ccccc2C(=O)NCc2ccccc2)cc1,85.5 µM (inactive),41.9 µM (inactive),> 100 µM (inactive),56.4 µM (inactive),> 100 µM (inactive),> 100 µM (inactive),> 100 µM (inactive),66.5 µM (inactive),36.1 µM (inactive),> 100 µM (inactive),> 100 µM (inactive),40.6 µM (inactive),> 100 µM (inactive),> 100 µM (inactive),> 100 µM (inactive),46.8 µM (inactive),67.5 µM (inactive),58.2 µM (inactive),> 100 µM (inactive),–
COc1ccc(N(C(=O)OC(C)(C)C)[C@@H]2C(C)=C[C@H]([S@@+]([O-])c3ccc(C)cc3)[C@@H]3C(=O)N(C)C(=O)[C@@H]32)cc1,17.5 µM (inactive),16.6 µM (inactive),18.4 µM (inactive),27.5 µM (inactive),27.1 µM (inactive),15.1 µM (inactive),2.13 µM (inactive),18.4 µM (inactive),17.5 µM (inactive),19.3 µM (inactive),10.1 µM (inactive),22 µM (inactive),15 µM (inactive),10.7 µM (inactive),25.3 µM (inactive),14 µM (inactive),14.3 µM (inactive),16.5 µM (inactive),13.6 µM (inactive),–
CCC(C)OC(=O)/C(Br)=C1/OC(=O)c2ccccc2-c2ccccc21 (configuration not stated),49.5 µM (inactive),21.2 µM (inactive),19.4 µM (inactive),6.85 µM (inactive),27.4 µM (inactive),25.2 µM (inactive),> 100 µM (inactive),24 µM (inactive),88.7 µM (inactive),36.6 µM (inactive),40.7 µM (inactive),> 100 µM (inactive),26.9 µM (inactive),> 10 µM (inactive),43.4 µM (inactive),> 10 µM (inactive),22.3 µM (inactive),62.5 µM (inactive),18.8 µM (inactive),–
CC(C)(CN1CCCCC1)C(/C=C/c1ccc(Cl)c(Cl)c1)=N\NC(=O)N/N=C(/C=C/c1ccc(Cl)c(Cl)c1)C(C)(C)CN1CCCCC1,1.69 µM (inactive),1.99 µM (inactive),1.95 µM (inactive),2.62 µM (inactive),1.56 µM (inactive),4.14 µM (inactive),1.64 µM (inactive),1.77 µM (inactive),1.63 µM (inactive),1.86 µM (inactive),1.72 µM (inactive),1.52 µM (inactive),1.31 µM (inactive),1.77 µM (inactive),1.71 µM (inactive),1.69 µM (inactive),1.42 µM (inactive),1.71 µM (inactive),> 10 µM (inactive),–
CC(O)C1(CNc2cc(Cl)nc(N)n2)CCCC1 (configuration not stated),> 100 µM (inactive),> 100 µM (inactive),> 100 µM (inactive),> 100 µM (inactive),> 100 µM (inactive),> 100 µM (inactive),> 100 µM (inactive),> 100 µM (inactive),> 100 µM (inactive),> 100 µM (inactive),> 100 µM (inactive),> 100 µM (inactive),> 100 µM (inactive),> 100 µM (inactive),> 100 µM (inactive),> 100 µM (inactive),> 100 µM (inactive),75.3 µM (inactive),> 100 µM (inactive),–
C[C@]12CC[C@H]3[C@@H](CCC4=CC(=O)C=C[C@@]43OC(=O)C(F)(F)F)[C@@H]1CCC2=O,> 33.6 µM (inactive),> 100 µM (inactive),> 85.5 µM (inactive),> 95.5 µM (inactive),> 100 µM (inactive),> 100 µM (inactive),> 100 µM (inactive),> 100 µM (inactive),> 100 µM (inactive),> 52.6 µM (inactive),> 100 µM (inactive),> 100 µM (inactive),> 100 µM (inactive),> 100 µM (inactive),> 100 µM (inactive),> 100 µM (inactive),> 100 µM (inactive),> 100 µM (inactive),> 100 µM (inactive),–
CC1=NN(c2nc(N)nc(CN3CCOCC3)n2)C(C)(C)C1,> 100 µM (inactive),73.3 µM (inactive),26.5 µM (inactive),> 100 µM (inactive),> 100 µM (inactive),18.1 µM (inactive),31.8 µM (inactive),> 100 µM (inactive),> 100 µM (inactive),> 100 µM (inactive),> 100 µM (inactive),15.2 µM (inactive),> 100 µM (inactive),16.9 µM (inactive),20.2 µM (inactive),> 100 µM (inactive),> 100 µM (inactive),20.5 µM (inactive),> 100 µM (inactive),–
C=CCN1C(=O)/C(=C/c2ccc(C)cc2)NC1=S,> 100 µM (inactive),39.6 µM (inactive),60.1 µM (inactive),27.1 µM (inactive),> 100 µM (inactive),> 100 µM (inactive),37.8 µM (inactive),> 100 µM (inactive),43.6 µM (inactive),76.4 µM (inactive),47 µM (inactive),20 µM (inactive),76.6 µM (inactive),> 100 µM (inactive),> 100 µM (inactive),> 100 µM (inactive),39.4 µM (inactive),57 µM (inactive),> 100 µM (inactive),–
O=C(O)CN1CCNCCN(CC(=O)O)CCNCC1,> 100 µM (inactive),5.28 µM (inactive),38.8 µM (inactive),5.14 µM (inactive),> 100 µM (inactive),> 100 µM (inactive),> 60.3 µM (inactive),> 100 µM (inactive),> 73.3 µM (inactive),5.57 µM (inactive),50 µM (inactive),3.41 µM (inactive),33 µM (inactive),24.3 µM (inactive),> 100 µM (inactive),9.06 µM (inactive),6.31 µM (inactive),> 100 µM (inactive),> 85.5 µM (inactive),–
CN(C)C=C1C(=O)c2c(Br)sc(Br)c2C1=O,28.7 µM (inactive),16.3 µM (inactive),17.1 µM (inactive),32.7 µM (inactive),19.1 µM (inactive),29.6 µM (inactive),18.9 µM (inactive),18.2 µM (inactive),16.3 µM (inactive),36.4 µM (inactive),21.3 µM (inactive),16.3 µM (inactive),14.1 µM (inactive),18.7 µM (inactive),18.1 µM (inactive),19.1 µM (inactive),29.8 µM (inactive),13.8 µM (inactive),20.8 µM (inactive),–
NCC(=O)NC(CO)C(=O)O (configuration not stated),> 100 µM (inactive),> 100 µM (inactive),> 100 µM (inactive),> 27.5 µM (inactive),> 100 µM (inactive),> 100 µM (inactive),> 100 µM (inactive),> 100 µM (inactive),> 100 µM (inactive),> 100 µM (inactive),> 100 µM (inactive),> 100 µM (inactive),> 100 µM (inactive),> 100 µM (inactive),> 100 µM (inactive),> 100 µM (inactive),> 100 µM (inactive),> 100 µM (inactive),> 100 µM (inactive),–
C=C1CC(c2ccc(O)c(OC)c2)Oc2c(OC)cccc21 (configuration not stated),44.9 µM (inactive),35.7 µM (inactive),35.4 µM (inactive),25.1 µM (inactive),33.9 µM (inactive),60.3 µM (inactive),40.6 µM (inactive),21.3 µM (inactive),39.3 µM (inactive),33.7 µM (inactive),–,13 µM (inactive),–,36 µM (inactive),34.8 µM (inactive),30.7 µM (inactive),–,54 µM (inactive),–,48 µM (inactive)
CN(C)c1ccc(C(=N/N=C2\C(=O)Nc3ccccc32)c2ccc(N(C)C)cc2)cc1,1.22 µM (inactive),0.417 µM (active),0.37 µM (active),0.422 µM (active),0.513 µM (active),2.01 µM (inactive),5.15 µM (inactive),0.313 µM (active),24.5 µM (inactive),0.625 µM (active),1.96 µM (inactive),0.363 µM (active),0.0214 µM (active),0.303 µM (active),0.39 µM (active),0.49 µM (active),0.22 µM (active),1.94 µM (inactive),0.938 µM (active),–
CC(=O)NC1(C)CCC(C(C)(C)NC(C)=O)CC1 (configuration not stated),> 100 µM (inactive),> 100 µM (inactive),> 100 µM (inactive),> 100 µM (inactive),> 100 µM (inactive),> 100 µM (inactive),> 100 µM (inactive),> 100 µM (inactive),> 100 µM (inactive),> 100 µM (inactive),> 100 µM (inactive),> 100 µM (inactive),> 100 µM (inactive),> 100 µM (inactive),> 100 µM (inactive),> 100 µM (inactive),> 100 µM (inactive),> 100 µM (inactive),> 100 µM (inactive),–
CN(C)CCN(C)c1ccc2c(=O)n(CCN(C)C)c(=O)n3c4ccccc4c(=O)c1c23,0.518 µM (active),0.48 µM (active),0.993 µM (active),0.0167 µM (active),1.89 µM (inactive),0.516 µM (active),1.66 µM (inactive),0.324 µM (active),1.56 µM (inactive),0.0353 µM (active),0.471 µM (active),0.0627 µM (active),1.26 µM (inactive),0.426 µM (active),< 0.026 µM (active),0.489 µM (active),0.179 µM (active),0.364 µM (active),3.3 µM (inactive),–
